Series [1] has as its target T1, CDC2 (p34^cdc2) (Homo sapiens, UniProt P06493).
T1 construct: made in house; host or cells: Sf9 insect cells (baculovirus co-infection)
Briefly: CDK inhibition assay, p34cdc2 kinase (histone H1 phosphorylation). It is filed as biochemical. The settings on record: 1 mg/ml histone H1, 15 μM ATP. On the procedure: Cyclin-dependent kinases (p34^cdc2, p33^cdk2, p33^cdk4) and cyclins (cyclin B, E and D1) are produced in Sf9 insect cells coinfected with appropriate baculoviral constructs. The cells are harvested 68-72 hrs post infection in lysis buffer for 30 min on ice and the soluble fraction is recovered by centrifugation at 14.000 g for 10 min. The protein extract is stored at −80° C.
Lysis buffer: 50 mM Tris pH 7,4, 150 mM NaCl, 5 mM EDTA, 20 mM NaF, 1% Tween, 1 mM DTT, 0.1 mM PMSF, leupeptine, aprotomine
To carry out experiments on kinetics under linear conditions, the final point test system for kinase activity measurement is used. The kinase is added to reaction mixture in such a way as to obtain linear activity with respect to the concentration of enzyme and with respect to time.
Kinase activity is determined at 30° C. in the kinase buffer.
Tested compounds are usually dissolved to 100 mM solutions in DMSO, final concentration of DMSO in reaction mixture never exceeds 1%. The controls contain suitable dilutions of DMSO.
After 10 min, addition 3×SDS sample buffer stops the incubations. […] The measurement of kinase activity is done using digital image analysis.
The kinase activity is expressed as a percentage of maximum activity, the apparent inhibition constants are determined by graphic analysis. Kinase buffer: 50 mM Hepes pH 7.4, 10 mM MgCl2, 5 mM EGTA, 10 mM 2-glycerolphosphate, 1 mM NaF, 1 mM DTT

Series [2] deals with B16 melanoma. Briefly: In vitro cytotoxicity, MTT assay, B16. It is filed as cell-based. The following applies: Mus musculus, 72 hours. An excerpt:
(§1) One of the parameters used, as the basis for colorimetric assays, is the metabolic activity of viable cells. For example, a microtiter assay, which uses the tetrazolium salt MTT, is now widely used to quantitate cell proliferation and cytotoxicity. For instance, this assay is used in drug screening programs and in chemosensitivity testing. Because only metabolically active cells cleave tetrazolium salts, these assays detect viable cells exclusively. In the case of MTT assay, yellow soluble tetrazolium salt is reduced to coloured water-insoluble formazan salt. After it is solubilized, the formazan formed can easily and rapidly be quantified in a conventional ELISA plate reader at 570 nm (maximum absorbance). The quantity of reduced formazan corresponds to number of vital cells in the culture.
(§2) The cells were maintained in Nunc/Corning 80 cm^2 plastic tissue culture flasks and cultured in cell culture medium (DMEM with 5 g/l glucose, 2 mM glutamine, 100 U/ml penicillin, 100 μg/ml streptomycin, 10% fetal calf serum and sodium bicarbonate).
(§3) The cell suspensions that were prepared and diluted according to the particular cell type and the expected target cell density (2.500-30.000 cells per well based on cell growth characteristics) were added by pipette (80 μl) into 96/well microtiter plates. Inoculates were allowed a pre-incubation period of 24 hours at 37° C. and 5% CO2 for stabilisation. Four-fold dilutions of the intended test concentration were added at time zero in 20 μl aliquots to the microtiter plate wells. Usually, test compound was evaluated at six 4-fold dilutions. […] All drug concentrations were examined in duplicates. Incubations of cells with the test compounds lasted for 72 hours at 37° C., in 5% CO2 atmosphere and 100% humidity. At the end of incubation period, the cells were assayed by using the MTT. Ten microliters of the MTT stock solution were pipetted into each well and incubated further for 1-4 hours. […] The optical density (OD) was measured at 540 nm with the Labsystem iEMS Reader MF (UK). The tumour cell survival (TCS) was calculated using the following equitation: TCS=(ODdrug exposed well/mean ODcontrol wells)×100%. The TCS50 value, the drug concentration lethal to 50% of the tumour cells, was calculated from the obtained dose response curves.

In series [3] the test system is normal human lymphocytes, mitogen activated proliferation. Briefly: Mitogen (concanavalin A) activated proliferation of lymphocytes, 3H-thymidine incorporation. It is filed as cell-based. The settings on record: Lymphocyte, 72 hours. On the procedure:
(§4) Human heparinized peripheral blood was obtained from healthy volunteers by cubital vein punction.
(§5) The cells were diluted at target density of 1.100.000 cells/ml were added by pipet (180 μl) into 96/well microtiter plates. Four-fold dilutions of the intended test concentration were added at time zero in 20 μl aliquots to the microtiter plate wells. Usually, test compound was evaluated at six 4-fold dilutions. […] Incubations of cells with test compounds lasted for 72 hours at 37° C., in 5% CO2 atmosphere and 100% humidity. At the end of incubation period, the cells were assayed by using the [^3H]-TdR:
(§6) Cell cultures were incubated with […] (20 μl of stock solution 500 μCi/ml) per well for 6 hours at 37° C. and 5% CO2. The automated cell harvester was used to lyse cells in water and adsorb the DNA onto glass-fiber filters in the format of microtiter plate. The DNA incorporated [^3H]-TdR was retained on the filter while unincorporated material passes through. The filters were dried at room temperature overnight, sealed into a sample bag with 10-12 ml of scintillant. The amount of [^3]H-TdR present in each filter (in CCPM) was determined by scintillation counting in a Betaplate liquid scintillation counter. The effective dose of immunosuppressant (ED) was calculated using the following equotation: ED=(CCPMdrug exposed well/mean CCPMcontrol wells)×100%.
In general terms: Dividing cells build labelled thymidine or BrdU into new DNA.

Series [4] deals with normal human lymphocytes, spontaneous proliferation. Briefly: Spontaneous proliferation of lymphocytes, 3H-thymidine incorporation. The following applies: Lymphocyte, 72 hours, unstimulated lymphocytes. In kind it is cell-based. On the procedure: as §4, §5, §6
The target in series [5] is IκB-α. Briefly: IκB-α kinase inhibition, in vitro kinase assay. In kind it is biochemical.
Series [6] relates to T-lymphoblastic leukemia cell line CEM. Briefly: In vitro cytotoxicity, MTT assay, CEM. In kind it is cell-based. The settings on record: Homo sapiens, 72 hours.
Description: as §1, §2, §3
On the technique in general: Tetrazolium dyes change colour on reduction, which living cells bring about.

Setting [7] is: unit nM printed beside the value.

Usually IC50 stands for the midpoint of a concentration-inhibition curve. Usually melting point stands for the temperature of the solid-liquid transition.

Like-named read-outs stand apart in the source and are kept apart here.

T1 sequence (P06493 whole entry, species assumed): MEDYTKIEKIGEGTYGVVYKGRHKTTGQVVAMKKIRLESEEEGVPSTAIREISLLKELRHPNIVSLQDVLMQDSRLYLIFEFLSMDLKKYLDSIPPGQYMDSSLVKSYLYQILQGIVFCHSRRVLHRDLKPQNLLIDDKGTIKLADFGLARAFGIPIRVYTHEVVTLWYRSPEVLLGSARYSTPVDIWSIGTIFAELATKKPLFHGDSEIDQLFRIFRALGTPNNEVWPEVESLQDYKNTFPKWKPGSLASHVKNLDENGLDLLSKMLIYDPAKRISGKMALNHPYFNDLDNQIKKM
T1 sequence (P14635 whole entry partner, species assumed): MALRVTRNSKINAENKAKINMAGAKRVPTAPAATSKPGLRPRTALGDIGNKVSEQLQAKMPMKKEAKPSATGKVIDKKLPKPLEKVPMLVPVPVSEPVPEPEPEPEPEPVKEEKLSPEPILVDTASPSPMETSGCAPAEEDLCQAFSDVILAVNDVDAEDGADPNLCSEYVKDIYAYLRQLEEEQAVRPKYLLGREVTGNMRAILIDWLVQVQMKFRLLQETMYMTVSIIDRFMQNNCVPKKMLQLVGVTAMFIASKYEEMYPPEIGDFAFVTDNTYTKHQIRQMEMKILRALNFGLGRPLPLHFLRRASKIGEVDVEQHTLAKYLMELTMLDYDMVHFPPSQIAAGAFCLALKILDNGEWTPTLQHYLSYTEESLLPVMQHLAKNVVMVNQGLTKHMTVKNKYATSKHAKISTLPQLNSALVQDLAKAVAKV

Consider `Cn1c(S)nc2c(NCc3ccccc3)nc(NCCO)nc21`, for which the IC50 in series [1] (30° C., 10 min) is 22400 nM; in series [2] it was 85.7 µM; in series [3], 83.5 µM; in series [4], at least 250 µM; in series [5], 35700 nM; in series [6] it was 92.4 µM.
For the compound `CC(C)n1c(NCCO)nc2c(NCc3ccccc3)nc(NCCCO)nc21`, the IC50 in series [1] (30° C., 10 min) is 144000 nM; in series [2], above 167 µM; in series [3] it was 29.3 µM; in series [4], 181 µM; in series [5] it was 153000 nM; in series [6] it was above 167 µM.
`CC(C)n1c(Br)nc2c(NCc3ccccc3)nc(NCCCO)nc21` [2-(3-hydroxypropylamino)-6-benzylamino-8-bromo-9-isopropypurine] gave a melting point of 156 to 161 °C. Besides, in series [1] (30° C., 10 min), the IC50 was 12900 nM. The compound further came in with an IC50 in series [2] of 76.4 µM. In series [3], this compound showed an IC50 of 5.9 µM. This compound also displayed an IC50 in series [4] of 178 µM. Further, the IC50 in series [5] is 24500 nM. Besides, the IC50 in series [6] was found to be 117 µM.
`CC[C@H](CO)Nc1nc(NCc2ccccc2)c2nc(F)n(C(C)C)c2n1`: the IC50 in series [1] (30° C., 10 min) is 380 nM; in series [2], 3.2 µM; in series [5] it was 1200 nM; in series [6] it was 3.38 µM.
With `CC(C)[C@H](CO)Nc1nc(Nc2cccc(Cl)c2)c2nc(F)n(C(C)C)c2n1`, the IC50 was found to be 3.8 nM in series [1] (setting [7]), 11 nM in series [5] (setting [7]) and 2.5 µM in series [6].
As to `Cn1c(O)nc2c(NCc3ccccc3)nc(NCCO)nc21`, the 50% inhibitory concentration (IC50) in series [1] (30° C., 10 min) turned out to be 13500 nM; in series [2], 56.2 µM; in series [3], 48.6 µM; in series [4] it was 201 µM; in series [5], 16200 nM; in series [6], 45.5 µM.
Consider `Cn1c(NCCO)nc2c(NCc3ccccc3)nc(NCCO)nc21`, for which the IC50 was 125000 nM in series [1] (30° C., 10 min); above 167 µM in series [2]; 169 µM in series [3]; at least 250 µM in series [4]; 154000 nM in series [5]; above 167 µM in series [6].
`COc1cccc(CNc2nc(Cl)nc3c2nc(Br)n3C(C)C)c1` [Example 3, 6-(3-Methoxybenzylamino)-2-chloro-8-bromo-9-isopropylpurine] registered a melting point of 123 to 125 °C.
Regarding `CC(C)n1c(N)nc2c(NCc3ccccc3)nc(NCCCO)nc21`, the IC50 in series [1] (30° C., 10 min) was 8520 nM; in series [2], 6.8 µM; in series [3] it was 1.59 µM; in series [4], 143 µM; in series [5], 12800 nM; in series [6], 8.52 µM.
With `CC[C@H](CO)Nc1nc(NCc2ccccc2)c2nc(NCN)n(C(C)C)c2n1`, the IC50 stood at 181000 nM in series [1] (30° C., 10 min); 25.8 µM in series [3]; 177 µM in series [4]; 193000 nM in series [5].
`CSc1nc2c(NCc3ccccc3)nc(NCCCO)nc2n1C(C)C` [2-(3-hydroxypropylamino)-6-benzylamino-8-methylthio-9-isopropylpurine] displayed a melting point of 64 to 67 °C. Moreover, the IC50 in series [2] worked out at 60.6 µM. The compound further showed an IC50 in series [6] of 68.4 µM.
Take `CC(C)n1c(O)nc2c(NCc3ccccc3)nc(NCCCO)nc21`: the IC50 in series [1] (30° C., 10 min) turned out to be 6480 nM; in series [2], 5.6 µM; in series [3] it was 2.1 µM; in series [4], 163 µM; in series [5], 12600 nM; in series [6], 7.48 µM.
